The values below come from PMC6631349 (Xenobiotica; the fate of foreign compounds in biological …, 2014).

One data set addresses T1, UGT1A9 (Homo sapiens, UniProt O60656).
T1 sequence (O60656 26-530): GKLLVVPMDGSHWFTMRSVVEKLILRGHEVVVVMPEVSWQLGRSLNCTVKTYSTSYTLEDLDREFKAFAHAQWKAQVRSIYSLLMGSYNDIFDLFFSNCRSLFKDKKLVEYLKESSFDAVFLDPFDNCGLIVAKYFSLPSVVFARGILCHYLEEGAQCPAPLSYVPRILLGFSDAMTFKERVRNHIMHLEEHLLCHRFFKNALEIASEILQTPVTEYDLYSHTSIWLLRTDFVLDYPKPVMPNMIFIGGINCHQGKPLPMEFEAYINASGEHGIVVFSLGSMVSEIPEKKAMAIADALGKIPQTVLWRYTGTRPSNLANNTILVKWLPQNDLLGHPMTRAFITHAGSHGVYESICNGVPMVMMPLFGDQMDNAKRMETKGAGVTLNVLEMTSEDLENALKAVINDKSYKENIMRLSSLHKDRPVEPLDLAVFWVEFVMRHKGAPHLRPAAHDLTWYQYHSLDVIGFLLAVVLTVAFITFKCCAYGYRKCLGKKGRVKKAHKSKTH
Briefly: UGT1A9 supersomes-catalyzed 4-MU glucuronidation inhibition. Conditions: 50 μM LPC components; recombinant human UGT; mean of triplicate.

Another data set concerns UGT isoforms. Briefly: Initial screening towards all UGT isoforms. It counts as biochemical, human. The settings on record: about 50 μM; isoforms not given.
For the next data set, the target named is T2, UGT1A6 (Homo sapiens, UniProt P19224).
T2 sequence (P19224 27-532): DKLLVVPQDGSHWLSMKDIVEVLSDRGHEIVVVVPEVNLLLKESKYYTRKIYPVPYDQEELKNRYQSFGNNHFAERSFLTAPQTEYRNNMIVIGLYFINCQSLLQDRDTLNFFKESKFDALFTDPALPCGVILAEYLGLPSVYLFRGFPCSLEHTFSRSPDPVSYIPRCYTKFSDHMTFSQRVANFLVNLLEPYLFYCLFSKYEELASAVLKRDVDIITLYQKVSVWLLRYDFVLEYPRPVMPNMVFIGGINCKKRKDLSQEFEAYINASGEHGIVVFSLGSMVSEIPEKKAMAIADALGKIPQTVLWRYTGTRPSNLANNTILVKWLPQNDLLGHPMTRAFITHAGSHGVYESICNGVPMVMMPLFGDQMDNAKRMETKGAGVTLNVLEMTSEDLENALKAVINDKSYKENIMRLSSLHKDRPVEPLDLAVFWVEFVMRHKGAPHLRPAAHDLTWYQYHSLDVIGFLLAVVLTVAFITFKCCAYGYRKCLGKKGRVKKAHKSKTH
Conditions: for residual activity 1A6: 50 μM LPC components, recombinant human UGT, mean of triplicate; for inhibition kinetic type towards UGT1A6: Dixon and Lineweaver-Burk plots, 4-MU glucuronidation.

Another data set has as its target T3, UGT1A7 (Homo sapiens, UniProt Q9HAW7).
T3 sequence (Q9HAW7 26-530): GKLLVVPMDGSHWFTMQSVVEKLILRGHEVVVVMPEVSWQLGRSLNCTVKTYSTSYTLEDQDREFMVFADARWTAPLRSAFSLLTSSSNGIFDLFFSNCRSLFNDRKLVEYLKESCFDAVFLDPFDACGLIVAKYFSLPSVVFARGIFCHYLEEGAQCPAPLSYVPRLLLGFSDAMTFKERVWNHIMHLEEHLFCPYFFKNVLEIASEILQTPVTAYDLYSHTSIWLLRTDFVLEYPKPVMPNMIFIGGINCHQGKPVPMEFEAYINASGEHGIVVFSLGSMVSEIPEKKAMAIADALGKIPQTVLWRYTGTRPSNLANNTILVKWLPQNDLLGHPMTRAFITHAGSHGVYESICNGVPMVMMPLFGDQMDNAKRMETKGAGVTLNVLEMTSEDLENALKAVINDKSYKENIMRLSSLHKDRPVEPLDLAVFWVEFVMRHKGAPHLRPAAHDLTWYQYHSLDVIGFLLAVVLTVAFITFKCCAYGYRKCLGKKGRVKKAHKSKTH
Briefly: UGT1A7 supersomes-catalyzed 4-MU glucuronidation inhibition. Conditions: 50 μM LPC components; recombinant human UGT; mean of triplicate.

Consider `CCCCCCCCCCCCCCC(=O)OC[C@@H](O)COP(=O)([O-])OCC[N+](C)(C)C` [LPC 15:0], for which the “residual activity 1A9” value on UGT1A9 turned out to be 82.8%. The “inhibition of activity of UGT isoforms” value in the data set with UGT isoforms was “more than 90%”. On UGT1A6, the “residual activity 1A6” value worked out at 2.9% and the “inhibition kinetic type towards UGT1A6” value is reported as “competitive inhibition”. Besides, the “residual activity 1A7” value at UGT1A7 is on record as 156.2%.
Taken in the same sequence, the figures for `CCCCCCCCCCCCCCCCCC(=O)OC[C@@H](O)COP(=O)([O-])OCC[N+](C)(C)C` [LPC 18:0] were 64.4%, “more than 90%”, 4.3%, “non-competitively inhibited” and 133.4%.
For the compound `CCCCCCCCCCCCCCCCC(=O)OC[C@@H](O)COP(=O)([O-])OCC[N+](C)(C)C` [LPC 17:0], on UGT1A9, the “residual activity 1A9” value is listed as 87.5%. The “inhibition of activity of UGT isoforms” value with UGT isoforms is listed as “more than 90%”. The “residual activity 1A6” value on UGT1A6 was found to be 8.5%. Further, the “residual activity 1A7” value on UGT1A7 is given as 164.3%.
For `CCCCCCCCCCCC(=O)OC[C@@H](O)COP(=O)([O-])OCC[N+](C)(C)C` [LPC 12:0], the “residual activity 1A9” value at UGT1A9 is given as 89.2%. On UGT1A6, the “residual activity 1A6” value was determined as 80.2%. At UGT1A7, the “residual activity 1A7” value is on record as 138.6%.
Regarding `CCCCCCCCCC(=O)OC[C@@H](O)COP(=O)([O-])OCC[N+](C)(C)C` [LPC 10:0], the “residual activity 1A9” value on UGT1A9 is 99.2%. Further, on UGT1A6, the “residual activity 1A6” value is listed as 65.7%. Further, the “residual activity 1A7” value at UGT1A7 was 139.8%.
